Data from patent publication US11780893B2, “Kv1.3 blockers” (Zealand Pharma A/S, priority 2019, dated 2023).
pIC50: −log10 of the molar value. Read-outs that look alike come from different tables or passages of the source. Bridge positions count the residues as written; N and C are the ends. Square brackets hold non-standard residues; d marks the D form. Peptide text beside a SMILES is read from it. Nle = CCCC[C@H](N)C(=O)O

Legend:
Kv1.3 = target: T1, Kv1.3 (Homo sapiens, UniProt P22001); assay: cell-based; conditions: CHO cells, whole-cell patch clamp; read-out: Potency IC50 (nM) Kv1.3
T1 construct: expressed in transfected cells; host or cells: Chinese Hamster Ovary (CHO)
T1 sequence (P22001 whole entry): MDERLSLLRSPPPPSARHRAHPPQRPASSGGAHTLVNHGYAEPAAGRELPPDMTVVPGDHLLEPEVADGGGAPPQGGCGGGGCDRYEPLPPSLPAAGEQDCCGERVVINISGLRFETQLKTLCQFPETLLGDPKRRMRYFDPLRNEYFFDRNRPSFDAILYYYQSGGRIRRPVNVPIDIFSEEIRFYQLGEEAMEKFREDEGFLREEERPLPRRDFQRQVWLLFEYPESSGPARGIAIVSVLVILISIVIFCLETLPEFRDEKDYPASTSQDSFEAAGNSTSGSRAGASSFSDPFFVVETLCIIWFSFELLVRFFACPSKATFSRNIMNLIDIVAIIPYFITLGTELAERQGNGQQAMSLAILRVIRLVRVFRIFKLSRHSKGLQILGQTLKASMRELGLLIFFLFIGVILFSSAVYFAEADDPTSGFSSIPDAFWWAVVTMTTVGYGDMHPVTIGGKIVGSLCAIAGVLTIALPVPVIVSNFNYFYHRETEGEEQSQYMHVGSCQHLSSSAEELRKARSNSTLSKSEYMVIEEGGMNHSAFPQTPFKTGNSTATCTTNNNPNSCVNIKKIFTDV

[1] = target: T2, human Kv1.3 voltage-gated K+ channel (Homo sapiens, UniProt P22001); assay: cell-based; conditions: inhibition of thallium flux, CHO-DUKX cells with human Kv1.3; read-out: IC50
T2 construct: host or cells: CHO-DUKX
T2 sequence (P22001 whole entry): as above

Rat whole blood = Rat whole blood (Rattus norvegicus, UniProt P15384)
Sequence of Rat whole blood (P15384 whole entry): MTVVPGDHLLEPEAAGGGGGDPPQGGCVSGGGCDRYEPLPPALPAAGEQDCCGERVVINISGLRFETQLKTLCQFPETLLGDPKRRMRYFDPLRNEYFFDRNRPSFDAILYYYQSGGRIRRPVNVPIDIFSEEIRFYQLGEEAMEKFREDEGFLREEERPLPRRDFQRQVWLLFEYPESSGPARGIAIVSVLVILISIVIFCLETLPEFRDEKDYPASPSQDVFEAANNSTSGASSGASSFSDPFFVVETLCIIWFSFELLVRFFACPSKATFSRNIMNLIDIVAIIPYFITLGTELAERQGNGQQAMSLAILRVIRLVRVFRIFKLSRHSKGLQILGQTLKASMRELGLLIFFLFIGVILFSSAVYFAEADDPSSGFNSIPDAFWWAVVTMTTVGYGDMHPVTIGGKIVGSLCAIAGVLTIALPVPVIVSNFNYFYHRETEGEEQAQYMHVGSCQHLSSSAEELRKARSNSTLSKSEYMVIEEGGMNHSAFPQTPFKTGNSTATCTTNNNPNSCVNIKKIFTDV

[2] = inhibition of IL-17A release, thapsigargin, 24 Hr, at least 2 replicates

## CCCC[C@H](NC(=O)[C@H](CC(=O)O)NC(=O)[C@H](CCCC)NC(=O)[C@@H](N)CC(N)=O)C(=O)N[C@@H](CCCNC(=N)N)C(=O)N[C@H]1CSSC[C@@H]2NC(=O)[C@H](CCCCN)NC(=O)CNC(=O)[C@H](Cc3ccccc3)NC(=O)[C@H]([C@@H](C)CC)NC(=O)[C@H](CO)NC(=O)CNC(=O)[C@H]([C@@H](C)CC)NC(=O)[C@H](C)NC(=O)[C@H](CCCCN)NC(=O)[C@H](CC(C)C)NC(=O)[C@@H]3CSSC[C@@H](C(=O)N[C@@H](Cc4ccc(O)cc4)C(=O)N4CCC[C@H]4C(=O)N[C@@H](CCCNC(=N)N)C(N)=O)NC(=O)[C@H](CCCCN)NC(=O)[C@H](CSSC[C@H](NC(=O)[C@H](CCC(=O)O)NC(=O)[C@H](C(C)C)NC(=O)[C@H](CO)NC(=O)[C@H](C)NC(=O)[C@H](CO)NC1=O)C(=O)N[C@@H](CCCCN)C(=O)N[C@@H](CCC(N)=O)C(=O)N[C@@H](CCCCN)C(=O)N3)NC(=O)[C@H](CCCCN)NC(=O)[C@H](CCCCN)NC(=O)[C@H](CC(N)=O)NC(=O)[C@H](CCSC)NC2=O [Compound 39] (H-N[Nle]D[Nle]RCSASVECKQKCLKAIGSIFGKCMNKKCKCYPR-NH2; disulfide 6-27, 12-32, 16-34)
Kv1.3
  IC50: 0.15 nM
[1]
  pIC50: 9.96

## CC[C@H](C)[C@@H]1NC(=O)[C@H](C)NC(=O)[C@H](CCCCN)NC(=O)[C@H](Cc2ccc(O)cc2)NC(=O)[C@@H]2CSSC[C@@H](C(=O)N[C@@H](Cc3ccc(O)cc3)C(=O)N3CCC[C@H]3C(=O)N[C@@H](CCCNC(=N)N)C(N)=O)NC(=O)[C@H](CCCCN)NC(=O)[C@@H]3CSSC[C@H](NC(=O)[C@H](CCC(=O)O)NC(=O)[C@H](C(C)C)NC(=O)[C@H](CO)NC(=O)[C@H](C)NC(=O)[C@H](CO)NC(=O)[C@@H](NC(=O)[C@H](CCCNC(=N)N)NC(=O)[C@H](CCSC)NC(=O)[C@H](CC(=O)O)NC(=O)[C@H](CCSC)NC(=O)[C@@H](N)CC(N)=O)CSSC[C@H](NC(=O)[C@H](CCCCN)NC(=O)CNC(=O)[C@H](Cc4ccccc4)NC(=O)[C@H]([C@@H](C)CC)NC(=O)[C@H](CO)NC(=O)CNC1=O)C(=O)N[C@@H](CCSC)C(=O)N[C@@H](CC(N)=O)C(=O)N[C@@H](CCCCN)C(=O)N[C@@H](CCCCN)C(=O)N3)C(=O)N[C@@H](CCCCN)C(=O)N[C@@H](CCC(N)=O)C(=O)N[C@@H](CCCCN)C(=O)N2 [Compound 50] (H-NMDMRCSASVECKQKCYKAIGSIFGKCMNKKCKCYPR-NH2; disulfide 6-27, 12-32, 16-34)
Kv1.3
  IC50: 0.27 nM
[1]
  pIC50: 9.80

## CCCC[C@H](NC(=O)[C@@H]1CCCN1)C(=O)N[C@@H](CCC(=O)O)C(=O)N[C@@H](CCCC)C(=O)N[C@@H](CCCNC(=N)N)C(=O)N[C@H]1CSSC[C@@H]2NC(=O)[C@H](CCCCN)NC(=O)CNC(=O)[C@H](Cc3ccccc3)NC(=O)[C@H]([C@@H](C)CC)NC(=O)[C@H](CO)NC(=O)CNC(=O)[C@H]([C@@H](C)CC)NC(=O)[C@H](C)NC(=O)[C@H](CC(C)C)NC(=O)[C@H](CC(C)C)NC(=O)[C@@H]3CSSC[C@@H](C(=O)N[C@@H](Cc4ccc(O)cc4)C(=O)N4CCC[C@H]4C(=O)N[C@@H](CCCNC(=N)N)C(=O)O)NC(=O)[C@H](CCCCN)NC(=O)[C@H](CSSC[C@H](NC(=O)[C@H](CCC(=O)O)NC(=O)[C@H](C(C)C)NC(=O)[C@H](CO)NC(=O)[C@H](C)NC(=O)[C@H](CO)NC1=O)C(=O)N[C@@H](CCCCN)C(=O)N[C@@H](CCC(N)=O)C(=O)N[C@@H](CCCCN)C(=O)N3)NC(=O)[C@H](CCCCN)NC(=O)[C@H](CCCCN)NC(=O)[C@H](CC(N)=O)NC(=O)[C@H](CCCC)NC2=O [Compound 99] (H-P[Nle]E[Nle]RCSASVECKQKCLLAIGSIFGKC[Nle]NKKCKCYPR-OH; disulfide 6-27, 12-32, 16-34)
[1]
  pIC50: 9.47
Rat whole blood
  pIC50: ≥ 9.00
Rat whole blood; [2]
  pIC50: 9.30

## CCCC[C@@H]1NC(=O)[C@@H]2CSSC[C@H](NC(=O)[C@H](CCCNC(=N)N)NC(=O)[C@H](CCC(=O)O)NC(=O)[C@H](CC(=O)O)NC(=O)[C@@H](NC(=O)[C@@H]3CCCN3)[C@@H](C)CC)C(=O)N[C@@H](CO)C(=O)N[C@@H](C)C(=O)N[C@@H](CO)C(=O)N[C@@H](C(C)C)C(=O)N[C@@H](CCC(=O)O)C(=O)N[C@H]3CSSC[C@H](NC(=O)[C@H](CCCCN)NC(=O)[C@H](CCCCN)NC(=O)[C@H](CC(N)=O)NC1=O)C(=O)N[C@@H](CCCCN)C(=O)N[C@H](C(=O)N[C@@H](Cc1ccc(O)cc1)C(=O)N1CCC[C@H]1C(=O)N[C@@H](CCCNC(=N)N)C(=O)O)CSSC[C@H](NC(=O)[C@H](CCCCN)NC(=O)[C@H](CCC(N)=O)NC(=O)[C@H](CCCCN)NC3=O)C(=O)N[C@@H](CC(C)C)C(=O)N[C@@H](C)C(=O)N[C@@H](C)C(=O)N[C@@H]([C@@H](C)CC)C(=O)NCC(=O)N[C@@H](CO)C(=O)N[C@@H]([C@@H](C)CC)C(=O)N[C@@H](Cc1ccccc1)C(=O)NCC(=O)N[C@@H](CCCCN)C(=O)N2 [Compound 100] (H-PIDERCSASVECKQKCLAAIGSIFGKC[Nle]NKKCKCYPR-OH; disulfide 6-27, 12-32, 16-34)
[1]
  pIC50: 9.07
Rat whole blood
  pIC50: ≥ 9.00
Rat whole blood; [2]
  pIC50: 9.06

## CCCC[C@H](NC(=O)[C@@H]1CCCN1)C(=O)N[C@@H](CC(=O)O)C(=O)N[C@@H](CCCC)C(=O)N[C@@H](CCCNC(=N)N)C(=O)N[C@H]1CSSC[C@@H]2NC(=O)[C@H](CCCCN)NC(=O)CNC(=O)[C@H](Cc3ccccc3)NC(=O)[C@H]([C@@H](C)CC)NC(=O)[C@H](CO)NC(=O)CNC(=O)[C@H]([C@@H](C)CC)NC(=O)[C@H](C)NC(=O)[C@H](C)NC(=O)[C@H](CC(C)C)NC(=O)[C@@H]3CSSC[C@@H](C(=O)N[C@@H](Cc4ccc(O)cc4)C(=O)N4CCC[C@H]4C(=O)N[C@@H](CCCNC(=N)N)C(=O)O)NC(=O)[C@H](CCCCN)NC(=O)[C@H](CSSC[C@H](NC(=O)[C@H](CCC(=O)O)NC(=O)[C@H](C(C)C)NC(=O)[C@H](CO)NC(=O)[C@H](C)NC(=O)[C@H](CO)NC1=O)C(=O)N[C@@H](C)C(=O)N[C@@H](CCC(N)=O)C(=O)N[C@@H](CCCCN)C(=O)N3)NC(=O)[C@H](CCCCN)NC(=O)[C@H](CCCCN)NC(=O)[C@H](CC(N)=O)NC(=O)[C@H](CCSC)NC2=O [Compound 102] (H-P[Nle]D[Nle]RCSASVECAQKCLAAIGSIFGKCMNKKCKCYPR-OH; disulfide 6-27, 12-32, 16-34)
[1]
  pIC50: 9.35
Rat whole blood
  pIC50: ≥ 9.00
Rat whole blood; [2]
  pIC50: 9.49

## CCCC[C@@H]1NC(=O)[C@@H]2CSSC[C@H](NC(=O)[C@H](CCCNC(=N)N)NC(=O)[C@@H](N)CC(C)C)C(=O)N[C@@H](CO)C(=O)N[C@@H](C)C(=O)N[C@@H](CO)C(=O)N[C@@H](C(C)C)C(=O)N[C@@H](CCC(=O)O)C(=O)N[C@H]3CSSC[C@H](NC(=O)[C@H](CCCCN)NC(=O)[C@H](CCCCN)NC(=O)[C@H](CC(N)=O)NC1=O)C(=O)N[C@@H](CCCCN)C(=O)N[C@H](C(=O)N[C@@H](Cc1ccc(O)cc1)C(=O)N1CCC[C@H]1C(=O)N[C@@H](CCCNC(=N)N)C(=O)O)CSSC[C@H](NC(=O)[C@H](CCCCN)NC(=O)[C@H](CCC(N)=O)NC(=O)[C@H](CCCCN)NC3=O)C(=O)N[C@@H](CC(C)C)C(=O)N[C@@H](CCCCN)C(=O)N[C@@H](C)C(=O)N[C@@H]([C@@H](C)CC)C(=O)NCC(=O)N[C@@H](CO)C(=O)N[C@@H]([C@@H](C)CC)C(=O)N[C@@H](Cc1ccccc1)C(=O)NCC(=O)N[C@@H](CCCCN)C(=O)N2 [Compound 114] (H-LRCSASVECKQKCLKAIGSIFGKC[Nle]NKKCKCYPR-OH; disulfide 3-24, 9-29, 13-31)
[1]
  pIC50: 9.41
Rat whole blood; [2]
  pIC50: 8.68

## CCCC[C@@H]1NC(=O)[C@@H]2CSSC[C@H](NC(=O)[C@H](CCCNC(=N)N)NC(=O)[C@H](CC(C)C)NC(C)=O)C(=O)N[C@@H](CO)C(=O)N[C@@H](C)C(=O)N[C@@H](CO)C(=O)N[C@@H](C(C)C)C(=O)N[C@@H](CCC(=O)O)C(=O)N[C@H]3CSSC[C@H](NC(=O)[C@H](CCCCN)NC(=O)[C@H](CCCCN)NC(=O)[C@H](CC(N)=O)NC1=O)C(=O)N[C@@H](CCCCN)C(=O)N[C@H](C(=O)N[C@@H](Cc1ccc(O)cc1)C(=O)N1CCC[C@H]1C(=O)N[C@@H](CCCNC(=N)N)C(=O)O)CSSC[C@H](NC(=O)[C@H](CCCCN)NC(=O)[C@H](CCC(N)=O)NC(=O)[C@H](CCCCN)NC3=O)C(=O)N[C@@H](CC(C)C)C(=O)N[C@@H](C)C(=O)N[C@@H](C)C(=O)N[C@@H]([C@@H](C)CC)C(=O)NCC(=O)N[C@@H](CO)C(=O)N[C@@H]([C@@H](C)CC)C(=O)N[C@@H](Cc1ccccc1)C(=O)NCC(=O)N[C@@H](CCCCN)C(=O)N2 [Compound 115] (Ac-LRCSASVECKQKCLAAIGSIFGKC[Nle]NKKCKCYPR-OH; disulfide 3-24, 9-29, 13-31)
[1]
  pIC50: 9.51
Rat whole blood
  pIC50: ≥ 9.00
Rat whole blood; [2]
  pIC50: 9.05

## CC[C@H](C)[C@@H]1NC(=O)[C@H](C)NC(=O)[C@H](C)NC(=O)[C@H](CC(C)C)NC(=O)[C@@H]2CSSC[C@@H](C(=O)N[C@@H](Cc3ccc(O)cc3)C(=O)N3CCC[C@H]3C(=O)N[C@@H](CCCNC(=N)N)C(=O)O)NC(=O)[C@H](CCCCN)NC(=O)[C@@H]3CSSC[C@H](NC(=O)[C@H](CCC(=O)O)NC(=O)[C@H](C(C)C)NC(=O)[C@H](CO)NC(=O)[C@H](C)NC(=O)[C@H](CO)NC(=O)[C@@H](NC(=O)[C@H](CCCNC(=N)N)NC(=O)[C@H](CC(C)C)NC(C)=O)CSSC[C@H](NC(=O)[C@H](CCCCN)NC(=O)CNC(=O)[C@H](Cc4ccccc4)NC(=O)[C@H]([C@@H](C)CC)NC(=O)[C@H](CO)NC(=O)CNC1=O)C(=O)N[C@@H](CCSC)C(=O)N[C@@H](CC(N)=O)C(=O)N[C@@H](CCCCN)C(=O)N[C@@H](CCCCN)C(=O)N3)C(=O)N[C@@H](CCCCN)C(=O)N[C@@H](CCC(N)=O)C(=O)N[C@@H](CCCCN)C(=O)N2 [Compound 116] (Ac-LRCSASVECKQKCLAAIGSIFGKCMNKKCKCYPR-OH; disulfide 3-24, 9-29, 13-31)
[1]
  pIC50: 9.74
Rat whole blood
  pIC50: ≥ 9.00
Rat whole blood; [2]
  pIC50: 9.44
